According to PubChem BioAssay (NCI):
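Five concentrations, 48 hours, 96-well plates. The concentration for 50% growth inhibition is given as GI50. TGI is the concentration that stops growth completely.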

How the values were obtained:
Assay in all cases: DTP human tumour cell line panel, 48 h
MALME-3M melanoma = system: MALME-3M melanoma
NCI-H226 lung = system: NCI-H226 lung
NCI-H23 lung = system: NCI-H23 lung
RXF 393 renal = system: RXF 393 renal
UACC-257 melanoma = system: UACC-257 melanoma
UO-31 renal = system: UO-31 renal
OVCAR-4 ovarian = system: OVCAR-4 ovarian
SK-OV-3 ovarian = system: SK-OV-3 ovarian
LOX IMVI melanoma = system: LOX IMVI melanoma
SF-295 CNS = system: SF-295 CNS
HCT-116 colon = system: HCT-116 colon
SK-MEL-28 melanoma = system: SK-MEL-28 melanoma
HCC-2998 colon = system: HCC-2998 colon
SNB-75 CNS = system: SNB-75 CNS
NCI-H460 lung = system: NCI-H460 lung
PC-3 prostate = system: PC-3 prostate
HT29 colon = system: HT29 colon
SK-MEL-2 melanoma = system: SK-MEL-2 melanoma
MDA-MB-231 breast = system: MDA-MB-231 breast
T-47D breast = system: T-47D breast
SK-MEL-5 melanoma = system: SK-MEL-5 melanoma
M14 melanoma = system: M14 melanoma
OVCAR-3 ovarian = system: OVCAR-3 ovarian
MOLT-4 leukemia = system: MOLT-4 leukemia
ACHN renal = system: ACHN renal
HCT-15 colon = system: HCT-15 colon
A498 renal = system: A498 renal
U251 CNS = system: U251 CNS
NCI-H522 lung = system: NCI-H522 lung
MCF7 breast = system: MCF7 breast
EKVX NSCLC = system: EKVX NSCLC
OVCAR-8 ovarian = system: OVCAR-8 ovarian
CCRF-CEM leukemia = system: CCRF-CEM leukemia
MDA-MB-435 = system: MDA-MB-435
HOP-92 NSCLC = system: HOP-92 NSCLC
OVCAR-5 ovarian = system: OVCAR-5 ovarian
A549 NSCLC = system: A549 NSCLC
CAKI-1 renal = system: CAKI-1 renal
TK-10 renal = system: TK-10 renal
DU-145 prostate = system: DU-145 prostate
K-562 leukemia = system: K-562 leukemia
HOP-62 NSCLC = system: HOP-62 NSCLC
SF-268 CNS = system: SF-268 CNS
KM12 colon = system: KM12 colon
UACC-62 melanoma = system: UACC-62 melanoma
COLO 205 colon = system: COLO 205 colon
SR leukemia = system: SR leukemia
IGROV1 ovarian = system: IGROV1 ovarian
SW-620 colon = system: SW-620 colon
HL-60(TB) leukemia = system: HL-60(TB) leukemia
786-0 renal = system: 786-0 renal
BT-549 breast = system: BT-549 breast
HS 578T breast = system: HS 578T breast
SF-539 CNS = system: SF-539 CNS
SN12C renal = system: SN12C renal
SNB-19 CNS = system: SNB-19 CNS
NCI/ADR-RES ovarian = system: NCI/ADR-RES ovarian
RPMI-8226 leukemia = system: RPMI-8226 leukemia

COc1ccc2[nH]c(=O)c3c4ccccc4cn3c2c1
GI50 (MALME-3M melanoma): 911 nM | TGI (MALME-3M melanoma): 2480 nM | GI50 (NCI-H226 lung): 3470 nM | TGI (NCI-H226 lung): 18000 nM | GI50 (NCI-H23 lung): 639 nM | TGI (NCI-H23 lung): 6590 nM | GI50 (RXF 393 renal): 312 nM | TGI (RXF 393 renal): 1090 nM | GI50 (UACC-257 melanoma): 2670 nM | TGI (UACC-257 melanoma): 11100 nM | GI50 (UO-31 renal): 689 nM | TGI (UO-31 renal): 4730 nM | GI50 (OVCAR-4 ovarian): 532 nM | TGI (OVCAR-4 ovarian): 2780 nM | GI50 (SK-OV-3 ovarian): 451 nM | TGI (SK-OV-3 ovarian): 11500 nM | GI50 (LOX IMVI melanoma): 776 nM | TGI (LOX IMVI melanoma): 2110 nM | GI50 (SF-295 CNS): 393 nM | TGI (SF-295 CNS): 1710 nM | GI50 (HCT-116 colon): 351 nM | TGI (HCT-116 colon): 1380 nM | GI50 (SK-MEL-28 melanoma): 663 nM | TGI (SK-MEL-28 melanoma): 2010 nM | GI50 (HCC-2998 colon): 332 nM | TGI (HCC-2998 colon): 807 nM | GI50 (SNB-75 CNS): 366 nM | TGI (SNB-75 CNS): 9470 nM | GI50 (NCI-H460 lung): 190 nM | TGI (NCI-H460 lung): 1310 nM | GI50 (PC-3 prostate): 429 nM | TGI (PC-3 prostate): 4080 nM | GI50 (HT29 colon): 375 nM | TGI (HT29 colon): 1440 nM | GI50 (SK-MEL-2 melanoma): 1350 nM | TGI (SK-MEL-2 melanoma): 7660 nM | GI50 (MDA-MB-231 breast): 1240 nM | TGI (MDA-MB-231 breast): 5850 nM | GI50 (T-47D breast): 756 nM | TGI (T-47D breast): 3840 nM | GI50 (SK-MEL-5 melanoma): 377 nM | TGI (SK-MEL-5 melanoma): 1440 nM | GI50 (M14 melanoma): 494 nM | TGI (M14 melanoma): 1920 nM | GI50 (OVCAR-3 ovarian): 253 nM | TGI (OVCAR-3 ovarian): 608 nM | GI50 (MOLT-4 leukemia): 399 nM | TGI (MOLT-4 leukemia): 2230 nM | GI50 (ACHN renal): 486 nM | TGI (ACHN renal): 1720 nM | GI50 (HCT-15 colon): 310 nM | TGI (HCT-15 colon): 1400 nM | GI50 (A498 renal): 383 nM | TGI (A498 renal): 4830 nM | GI50 (U251 CNS): 388 nM | TGI (U251 CNS): 1550 nM | GI50 (NCI-H522 lung): 576 nM | TGI (NCI-H522 lung): 2440 nM | GI50 (MCF7 breast): 153 nM | TGI (MCF7 breast): 969 nM | GI50 (EKVX NSCLC): 878 nM | TGI (EKVX NSCLC): 12400 nM | GI50 (OVCAR-8 ovarian): 1090 nM | TGI (OVCAR-8 ovarian): 3290 nM | GI50 (CCRF-CEM leukemia): 322 nM | TGI (CCRF-CEM leukemia): 1480 nM | GI50 (MDA-MB-435): 154 nM | TGI (MDA-MB-435): 411 nM | GI50 (HOP-92 NSCLC): 2000 nM | TGI (HOP-92 NSCLC): 8370 nM | GI50 (OVCAR-5 ovarian): 659 nM | TGI (OVCAR-5 ovarian): 2690 nM | GI50 (A549 NSCLC): 554 nM | TGI (A549 NSCLC): 2770 nM | GI50 (CAKI-1 renal): 169 nM | TGI (CAKI-1 renal): 839 nM | GI50 (TK-10 renal): 1280 nM | TGI (TK-10 renal): 5020 nM | GI50 (DU-145 prostate): 604 nM | TGI (DU-145 prostate): 3630 nM | GI50 (K-562 leukemia): 276 nM | TGI (K-562 leukemia): 1330 nM | GI50 (HOP-62 NSCLC): 228 nM | TGI (HOP-62 NSCLC): 885 nM | GI50 (SF-268 CNS): 516 nM | TGI (SF-268 CNS): 3190 nM | GI50 (KM12 colon): 323 nM | TGI (KM12 colon): 1650 nM | GI50 (UACC-62 melanoma): 345 nM | TGI (UACC-62 melanoma): 1400 nM | GI50 (COLO 205 colon): 373 nM | TGI (COLO 205 colon): 1360 nM | GI50 (SR leukemia): 125 nM | TGI (SR leukemia): 842 nM | GI50 (IGROV1 ovarian): 575 nM | TGI (IGROV1 ovarian): 5230 nM | GI50 (SW-620 colon): 319 nM | TGI (SW-620 colon): 1390 nM | GI50 (HL-60(TB) leukemia): 186 nM | TGI (HL-60(TB) leukemia): 548 nM | GI50 (786-0 renal): 553 nM | TGI (786-0 renal): 1950 nM | GI50 (BT-549 breast): 7300 nM | TGI (BT-549 breast): 20900 nM | GI50 (HS 578T breast): 250 nM | TGI (HS 578T breast): 775 nM | GI50 (SF-539 CNS): 657 nM | TGI (SF-539 CNS): 2530 nM | GI50 (SN12C renal): 600 nM | TGI (SN12C renal): 7170 nM | GI50 (SNB-19 CNS): 950 nM | TGI (SNB-19 CNS): 9330 nM | GI50 (NCI/ADR-RES ovarian): 308 nM | TGI (NCI/ADR-RES ovarian): 1290 nM | GI50 (RPMI-8226 leukemia): 358 nM | TGI (RPMI-8226 leukemia): 2030 nM
